In patent US6737383B1, “Herbicidal oxadiazolidines” (priority 1999, dated 2004):

Legend:
rape = assay: Test B pre/postemergence rape; format: in vivo, Brassica napus
Method in brief: (§1)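 Herbicidal effect was estimated by eye on a ten-point control scale after plants spent twelve to sixteen days in a greenhouse following soil or foliar treatment. Foliar sprays targeted plants at one to four leaves; all doses were formulated in a non-phytotoxic solvent with surfactant.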

giant foxtail = assay: Test B pre/postemergence giant foxtail; format: in vivo, Setaria faberii
Method in brief: as §1

pigweed = assay: Test B pre/postemergence pigweed; format: in vivo, Amaranthus retroflexus
Method in brief: as §1

soybean = assay: Test B pre/postemergence soybean; format: in vivo, Glycine max
Method in brief: as §1

wild oat = assay: Test B pre/postemergence wild oat; format: in vivo, Avena fatua
Method in brief: as §1

surinam grass = assay: Test B pre/postemergence surinam grass; format: in vivo, Brachiaria decumbens
Method in brief: as §1

cocklebur = assay: Test B pre/postemergence cocklebur; format: in vivo, Xanthium strumarium
Method in brief: as §1

bedstraw = assay: Test B pre/postemergence bedstraw; format: in vivo, Galium aparine; details: Preemergence; for Bedstraw plant response rating: scale 0 to 10, 0 is no effect, 10 is complete control
Method in brief: as §1

corn = assay: Test B pre/postemergence corn; format: in vivo, Zea mays
Method in brief: as §1

morningglory = assay: Test B pre/postemergence morningglory; format: in vivo, Ipomoea hederacea
Method in brief: as §1

wheat = assay: Test B pre/postemergence wheat; format: in vivo, Triticum aestivum
Method in brief: as §1

sugar beet = assay: Test B pre/postemergence sugar beet; format: in vivo, Beta vulgaris
Method in brief: as §1

blackgrass = assay: Test B pre/postemergence blackgrass; format: in vivo, Alopecurus myosuroides
Method in brief: as §1

crabgrass = assay: Test B pre/postemergence crabgrass; format: in vivo, Digitaria sanguinalis
Method in brief: as §1

velvetleaf = assay: Test B pre/postemergence velvetleaf; format: in vivo, Abutilon theophrasti
Method in brief: as §1

purple nutsedge = assay: Test B pre/postemergence purple nutsedge; format: in vivo, Cyperus rotundus
Method in brief: as §1

[1] = Postemergence, Rate 62 g/ha, scale of 0 to 10, 0 is no effect, 10 is complete control
[2] = Postemergence, Rate 125 g/ha, scale 0 to 10, 0 is no effect, 10 is complete control
[3] = Postemergence, Rate 500 g/ha, scale 0 to 10, 0 is no effect, 10 is complete control
[4] = Preemergence, Rate 62 g/ha, scale of 0 to 10 where 0 is no effect and 10 is complete control
[5] = Preemergence, Rate 125 g/ha, scale 0 to 10, 0 is no effect, 10 is complete control
[6] = Preemergence, Rate 500 g/ha, scale of 0 to 10 where 0 is no effect and 10 is complete control
[7] = Preemergence, Rate 250 g/ha, scale 0 to 10, 0 is no effect, 10 is complete control
[8] = Postemergence, Rate 250 g/ha, scale 0 to 10

Q: Which results are given for `COCCOCn1c(=O)on(C(=O)N(c2ccc(F)cc2F)C(C)C)c1=O` [Compound 505]?
A: Rape plant response rating (rape; [1]): 0; Rape plant response rating (rape; [2]): 0; Plant response rating, Rape (rape; [3]): 2; Plant response rating, Rape (rape; [4]): 4; Rape plant response rating (rape; [5]): 4; Rape plant response rating (rape; [6]): 9; Giant foxtail plant response rating (giant foxtail; [1]): 8; Giant foxtail plant response rating (giant foxtail; [2]): 8; Plant response rating, Giant foxtail (giant foxtail; [3]): 9; Plant response rating, Giant foxtail (giant foxtail; [4]): 9; Giant foxtail plant response rating (giant foxtail; [5]): 9; Giant foxtail plant response rating (giant foxtail; [6]): 10; Redroot pigweed plant response rating (pigweed; [1]): 0; Redroot pigweed plant response rating (pigweed; [2]): 0; Plant response rating, Redroot pigweed (pigweed; [3]): 9; Plant response rating, Redroot pigweed (pigweed; [4]): 9; Redroot pigweed plant response rating (pigweed; [5]): 10; Redroot pigweed plant response rating (pigweed; [6]): 10; Soybean plant response rating (soybean; [1]): 1; Soybean plant response rating (soybean; [2]): 2; Plant response rating, Soybean (soybean; [3]): 5; Plant response rating, Soybean (soybean; [4]): 0; Soybean plant response rating (soybean; [5]): 0; Soybean plant response rating (soybean; [6]): 5; Wild oats plant response rating (wild oat; [1]): 0; Wild oats plant response rating (wild oat; [2]): 2; Plant response rating, Wild oats (wild oat; [3]): 3; Plant response rating, Wild oats (wild oat; [4]): 2; Wild oats plant response rating (wild oat; [5]): 2; Wild oats plant response rating (wild oat; [6]): 9; B. signalgrass plant response rating (surinam grass; [1]): 0; B. signalgrass plant response rating (surinam grass; [2]): 3; B. signalgrass plant response rating (surinam grass; Postemergence, Rate 250 g/ha, scale 0 to 10, 0 no effect, 10 complete control): 8; Plant response rating, B. signalgrass (surinam grass; [3]): 8; Plant response rating, B. signalgrass (surinam grass; [4]): 0; B. signalgrass plant response rating (surinam grass; [7]): 2; B. signalgrass plant response rating (surinam grass; Preemergence, Rate 500 g/ha, scale 0 to 10, 0 is no effect, 10 is complete control): 6; Cocklebur plant response rating (cocklebur; [1]): 0; Cocklebur plant response rating (cocklebur; [2]): 0; Cocklebur plant response rating (cocklebur; [8]): 0; Plant response rating, Cocklebur (cocklebur; [3]): 4; Plant response rating, Cocklebur (cocklebur; [4]): 0; Cocklebur plant response rating (cocklebur; [5]): 0; Cocklebur plant response rating (cocklebur; [7]): 0; Cocklebur plant response rating (cocklebur; [6]): 2; Plant response rating, Bedstraw (bedstraw; Rate 62 g/ha, scale of 0 to 10 where 0 is no effect and 10 is complete control): 0; Bedstraw plant response rating (bedstraw; Rate 125 g/ha): 0; Bedstraw plant response rating (bedstraw; Rate 250 g/ha): 8; Bedstraw plant response rating (bedstraw; Rate 500 g/ha): 9; Corn plant response rating (corn; [1]): 0; Corn plant response rating (corn; [2]): 3; Corn plant response rating (corn; [8]): 6; Plant response rating, Corn (corn; [3]): 6; Plant response rating, Corn (corn; [4]): 2; Corn plant response rating (corn; [5]): 2; Corn plant response rating (corn; [6]): 6; Morningglory plant response rating (morningglory; [1]): 5; Morningglory plant response rating (morningglory; [2]): 5; Plant response rating, Morningglory (morningglory; [3]): 7; Plant response rating, Morningglory (morningglory; [4]): 0; Morningglory plant response rating (morningglory; [5]): 0; Morningglory plant response rating (morningglory; [6]): 3; Wheat plant response rating (wheat; [1]): 0; Wheat plant response rating (wheat; [2]): 2; Plant response rating, Wheat (wheat; [3]): 4; Plant response rating, Wheat (wheat; [4]): 3; Wheat plant response rating (wheat; [5]): 7; Wheat plant response rating (wheat; [6]): 8; Sugarbeets plant response rating (sugar beet; [1]): 3; Sugarbeets plant response rating (sugar beet; [2]): 5; Plant response rating, Sugarbeets (sugar beet; [3]): 9; Plant response rating, Sugarbeets (sugar beet; [4]): 3; Sugarbeets plant response rating (sugar beet; [5]): 3; Sugarbeets plant response rating (sugar beet; [6]): 8; Blackgrass plant response rating (blackgrass; [1]): 2; Blackgrass plant response rating (blackgrass; [2]): 4; Blackgrass plant response rating (blackgrass; [8]): 7; Plant response rating, Blackgrass (blackgrass; [3]): 7; Plant response rating, Blackgrass (blackgrass; [4]): 0; Blackgrass plant response rating (blackgrass; [5]): 6; Blackgrass plant response rating (blackgrass; [7]): 7; Blackgrass plant response rating (blackgrass; [6]): 6; Crabgrass plant response rating (crabgrass; [1]): 7; Crabgrass plant response rating (crabgrass; [2]): 7; Crabgrass plant response rating (crabgrass; [8]): 9; Plant response rating, Crabgrass (crabgrass; [3]): 9; Crabgrass plant response rating (crabgrass; [5]): 6; Crabgrass plant response rating (crabgrass; [6]): 8; Velvetleaf plant response rating (velvetleaf; [1]): 0; Velvetleaf plant response rating (velvetleaf; [2]): 0; Plant response rating, Velvetleaf (velvetleaf; [3]): 4; Plant response rating, Velvetleaf (velvetleaf; [4]): 0; Velvetleaf plant response rating (velvetleaf; [5]): 2; Velvetleaf plant response rating (velvetleaf; [6]): 10; Nutsedge plant response rating (purple nutsedge; [1]): 0; Nutsedge plant response rating (purple nutsedge; [2]): 2; Plant response rating, Nutsedge (purple nutsedge; [3]): 2; Plant response rating, Nutsedge (purple nutsedge; [4]): 3; Nutsedge plant response rating (purple nutsedge; [5]): 10; Nutsedge plant response rating (purple nutsedge; [6]): 8
